Experimental data published in ChEMBL document CHEMBL5257018, “Novel Strategies for the Treatment of Pseudomonas aeruginosa Infections” (J Med Chem, 2016).
In brackets after ≈: the same amount, converted by molar mass. Values belong to the molecule of their own block, whether it stands above or below them. Numbered stars: 1 amine (or outer) side, 2 acyl side, 3 side chain; on linkers, the order of the positions; unused ones are H or OH. Square brackets hold non-standard residues; d marks the D form. Peptide text beside a SMILES is read from it. X2 = COc1cccc2[nH]c(C)c(C[C@H](N[*:1])C(=O)[*:2])c12; dAla(ψthiazole) = C[C@@H](N[*:1])c1nc(C(=O)[*:2])cs1; Trp(4-OMe) = COc1cccc2[nH]cc(C[C@H](N)C(=O)O)c12; X3 = O=C(c1csc([C@@H](CO)N[*:1])n1)[*:2]; dAbu = CC[C@@H](N)C(=O)O; Dha = C=C(N)C(=O)O; Sar = CNCC(=O)O

Assays:
[1] = Antagonist activity at Pseudomonas aeruginosa MvfR
Pseudomonas aeruginosa = assay: Antimicrobial activity against Pseudomonas aeruginosa assessed as reduction in bacterial growth; type: functional, organism-based
[2] = molecular target: T1, PA-I galactophilic lectin (Pseudomonas aeruginosa (strain ATCC 15692 / PAO1 / 1C / PRS 101 / LMG12228), UniProt Q05097); assay: Binding affinity to Pseudomonas aeruginosa PAO1 LecA assessed as dissociation constant
T1 sequence (Q05097 whole entry): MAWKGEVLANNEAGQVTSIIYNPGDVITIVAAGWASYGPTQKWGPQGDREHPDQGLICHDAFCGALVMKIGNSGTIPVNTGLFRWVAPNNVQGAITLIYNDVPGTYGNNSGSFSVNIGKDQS

Elastase = Elastase (Pseudomonas aeruginosa (strain ATCC 15692 / PAO1 / 1C / PRS 101 / LMG12228), UniProt P14756); assay: Inhibition of Pseudomonas aeruginosa LasB elastase using aminobenzoyl-Ala-Gly-Leu-Ala-p-nitro-benzyl-amide as substrate b microtiter-based fluorimetric assay
Elastase, sequence (P14756 whole entry): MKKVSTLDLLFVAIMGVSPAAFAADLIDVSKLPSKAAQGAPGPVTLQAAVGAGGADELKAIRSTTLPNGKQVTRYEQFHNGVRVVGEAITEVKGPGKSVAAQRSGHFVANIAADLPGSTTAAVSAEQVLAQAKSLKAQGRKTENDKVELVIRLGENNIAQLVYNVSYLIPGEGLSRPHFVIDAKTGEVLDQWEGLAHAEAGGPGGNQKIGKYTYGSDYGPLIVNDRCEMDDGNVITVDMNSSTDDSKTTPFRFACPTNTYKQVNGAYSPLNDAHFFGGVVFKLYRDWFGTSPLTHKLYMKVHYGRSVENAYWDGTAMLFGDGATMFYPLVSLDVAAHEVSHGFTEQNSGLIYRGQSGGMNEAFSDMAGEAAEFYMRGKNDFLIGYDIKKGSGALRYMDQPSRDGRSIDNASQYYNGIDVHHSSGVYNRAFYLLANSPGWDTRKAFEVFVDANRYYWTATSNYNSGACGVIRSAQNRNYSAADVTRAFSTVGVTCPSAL

- IC50 [1]: 300 nM
Compound: O=C(CSc1nc2cc([N+](=O)[O-])ccc2[nH]1)Nc1ccc(Oc2ccccc2)cc1

Compound: C=C1NC(=O)[C@@H](CC)NC(=O)CNC(=O)[C@H](Cc2c[nH]c3cccc(OC)c23)NC(=O)[C@H](Cc2c[nH]c3ccccc23)NC(=O)c2csc(n2)[C@@H](CO)NC(=O)CN(C)C1=O (cyclo([Dha][Sar][X3]W[Trp(4-OMe)]G[dAbu]))
- IC50 (Pseudomonas aeruginosa): 4 µg/mL (≈ 4.68 µM)

Compound: C[C@@H]1O[C@H](CO)[C@@H](O)[C@H](O)[C@@H]1O
- Kd [2]: 16000 nM

Compound: C=C1NC(=O)[C@@H](C)NC(=O)CNC(=O)[C@H](Cc2c(C)[nH]c3cccc(OC)c23)NC(=O)[C@H](Cc2c[nH]c3ccccc23)NC(=O)c2csc(n2)[C@@H](C)NC(=O)CN(C)C1=O (cyclo(W[X2]G[dA][Dha][Sar][dAla(ψthiazole)]))
- IC50 (Pseudomonas aeruginosa): 0.1 µg/mL (≈ 0.119 µM)

- MIC (Pseudomonas aeruginosa): 2 µM
Compound: C[C@@H](N)C(=O)N[C@H](CCCCN)C(=O)N[C@H](CCCNC(=N)N)C(=O)N[C@H](Cc1c[nH]cn1)C(=O)N[C@H](Cc1c[nH]cn1)C(=O)NCC(=O)N[C@H](Cc1ccc(O)cc1)C(=O)N[C@H](CCCCN)C(=O)N[C@H](CCCNC(=N)N)C(=O)N[C@H](CCCCN)C(=O)N[C@H](Cc1ccccc1)C(=O)N[C@H](Cc1c[nH]cn1)C(N)=O (H-[dA][dK][dR][dH][dH]G[dY][dK][dR][dK][dF][dH]-NH2)

Compound: C=C1NC(=O)[C@@H](CC)NC(=O)CNC(=O)[C@H](Cc2c(C)[nH]c3cccc(OC)c23)NC(=O)[C@H](Cc2c[nH]c3ccccc23)NC(=O)c2csc(n2)[C@@H](C)NC(=O)CN(C)C1=O (cyclo(W[X2]G[dAbu][Dha][Sar][dAla(ψthiazole)]))
- IC50 (Pseudomonas aeruginosa): 0.14 µg/mL (≈ 0.164 µM)

Compound: Cc1c(O)c(=S)ccn1Cc1ccc(-c2ccccc2)cc1
- IC50 (Elastase): 3000 nM

- MIC (Pseudomonas aeruginosa): 32 µg/mL
Compound: Cc1ccc2c(C)c3c(c(O)c2c1O)C(=O)[C@]1(O)C(=O)C(C(N)=O)=C(O)[C@H](N)[C@@H]1C3

Compound: CC(=O)N[C@H]1C(O)O[C@H](CO)[C@@H](O[C@@H]2O[C@@H](C)[C@@H](O)[C@@H](O)[C@@H]2O)[C@@H]1O[C@@H]1O[C@H](CO)[C@H](O)[C@H](O)[C@H]1O (stereo partly drawn)
- Kd [2]: 212 nM

Compound: C=C1NC(=O)[C@@H](C)NC(=O)CNC(=O)[C@H](Cc2c[nH]c3cccc(OC)c23)NC(=O)[C@H](Cc2c[nH]c3ccccc23)NC(=O)c2csc(n2)[C@@H](CO)NC(=O)CN(C)C1=O (cyclo([Dha][Sar][X3]W[Trp(4-OMe)]G[dA]))
- IC50 (Pseudomonas aeruginosa): 5 µg/mL (≈ 5.95 µM)

Compound: COC(=O)c1cn([C@@H]2O[C@H](CO)[C@@H](O[C@@H]3O[C@@H](C)[C@@H](O)[C@@H](O)[C@@H]3O)[C@H](O)[C@H]2NC(C)=O)nn1
- Kd [2]: 290 nM

- IC50 [1]: 250 nM
Compound: Nc1nnc(-c2cccc(C(F)(F)F)c2)o1

Compound: C=C1NC(=O)[C@@H](C)NC(=O)CNC(=O)[C@H](Cc2c[nH]c3cccc(OC)c23)NC(=O)[C@H](Cc2c[nH]c3ccccc23)NC(=O)c2csc(n2)[C@@H](C)NC(=O)CN(C)C1=O (cyclo(W[Trp(4-OMe)]G[dA][Dha][Sar][dAla(ψthiazole)]))
- IC50 (Pseudomonas aeruginosa): 0.12 µg/mL (≈ 0.145 µM)

- IC50 [1]: 87 nM
Compound: CC(C)(C)c1ccc(C(=O)NO)cc1

Compound: CC[C@H](C)[C@H](NC(=O)[C@H](CCCNC(=N)N)NC(=O)[C@H](CCCNC(=N)N)NC(=O)[C@H](Cc1ccccc1)NC(=O)[C@H](CC(C)C)NC(=O)[C@H](CCCNC(=N)N)NC(=O)[C@@H](N)CCCNC(=N)N)C(=O)N[C@@H](CC(C)C)C(=O)N[C@@H](CCCNC(=N)N)C(=O)N[C@@H](Cc1ccc(O)cc1)C(=O)N[C@@H](CC(C)C)C(=O)O (H-RRLFRRILRYL-OH)
- MIC (Pseudomonas aeruginosa): 2.5 µM

- Kd [2]: 140 nM
Compound: CC[C@H](C)[C@H](NC(=O)[C@H](Cc1cnc[nH]1)NCCCC[C@H](NC(=O)[C@@H](NC(=O)[C@H](CCCCN)NC(=O)[C@H](Cc1ccccc1)NC(=O)[C@H](CCCCNC(=O)[C@H](CC(C)C)NC(=O)[C@@H]1CCCN1C(=O)[C@@H](N)CCCCNC(=O)C[C@@H]1O[C@@H](C)[C@@H](O)[C@@H](O)[C@@H]1O)NC(=O)[C@H](CC(C)C)NC(=O)[C@@H]1CCCN1C(=O)[C@@H](N)CCCCNC(=O)C[C@@H]1O[C@@H](C)[C@@H](O)[C@@H](O)[C@@H]1O)[C@@H](C)CC)C(=O)N[C@H](C(=O)N[C@@H](CCCCN)C(=O)N[C@@H](Cc1ccccc1)C(=O)N[C@@H](CCCCN[C@@H](CC(C)C)C(=O)N1CCC[C@H]1C(=O)N[C@@H](CCCCNC(=O)C[C@@H]1O[C@@H](C)[C@@H](C)[C@@H](C)[C@@H]1O)C(=O)O)C(=O)N[C@@H](CC(C)C)C(=O)N1CCC[C@H]1C(=O)N[C@@H](CCCCNC(=O)C[C@@H]1O[C@@H](C)[C@@H](O)[C@@H](O)[C@@H]1O)C(=O)O)[C@@H](C)CC)C(N)=O

- MIC (Pseudomonas aeruginosa): 0.4 µM
Compound: CC(C)[C@H](NC(=O)[C@H](Cc1c[nH]c2ccccc12)NC(=O)[C@H](CCCNC(=N)N)NC(=O)[C@H](CCCNC(=N)N)NC(=O)[C@@H](NC(=O)[C@@H](NC(=O)[C@H](CCCNC(=N)N)NC(=O)[C@@H](NC(=O)[C@@H](NC(=O)[C@H](CCCNC(=N)N)NC(=O)[C@H](CCCNC(=N)N)NC(=O)[C@@H](NC(=O)[C@H](Cc1c[nH]c2ccccc12)NC(=O)[C@H](CCCNC(=N)N)NC(=O)[C@H](CCCNC(=N)N)NC(=O)[C@@H](NC(=O)[C@H](CCCNC(=N)N)NC(=O)[C@H](CCCNC(=N)N)NC(=O)[C@@H](NC(=O)[C@H](Cc1c[nH]c2ccccc12)NC(=O)[C@H](CCCNC(=N)N)NC(=O)[C@@H](N)CCCNC(=N)N)C(C)C)C(C)C)C(C)C)C(C)C)C(C)C)C(C)C)C(C)C)C(=O)N[C@@H](CCCNC(=N)N)C(=O)N[C@@H](CCCNC(=N)N)C(=O)O (H-RRWVRRVRRWVRRVVRVVRRWVRR-OH)

- MIC (Pseudomonas aeruginosa): 1 µM
Compound: CCCCCCCCCCCCCB(O)O
